Assay results taken from patent US12091405B2, “Substituted pyrazole compounds as indoleamine 2,3-dioxygenase inhibitors” (Merck Sharp & Dohme LLC, priority 2018, dated 2024).

Biological target: IDO1 (Homo sapiens, UniProt P14902)
Test: IDO1 Cellular Assay in HeLa Cells Stimulated with IFNγ
Format: cell-based
Conditions: IFNγ 100 ng/mL, 300 uM L-tryptophan, about 48 hours, fluorescence readout, read-out: IDO1 HELA Cell Assay, IC50

Chain of IDO1 (P14902 whole entry): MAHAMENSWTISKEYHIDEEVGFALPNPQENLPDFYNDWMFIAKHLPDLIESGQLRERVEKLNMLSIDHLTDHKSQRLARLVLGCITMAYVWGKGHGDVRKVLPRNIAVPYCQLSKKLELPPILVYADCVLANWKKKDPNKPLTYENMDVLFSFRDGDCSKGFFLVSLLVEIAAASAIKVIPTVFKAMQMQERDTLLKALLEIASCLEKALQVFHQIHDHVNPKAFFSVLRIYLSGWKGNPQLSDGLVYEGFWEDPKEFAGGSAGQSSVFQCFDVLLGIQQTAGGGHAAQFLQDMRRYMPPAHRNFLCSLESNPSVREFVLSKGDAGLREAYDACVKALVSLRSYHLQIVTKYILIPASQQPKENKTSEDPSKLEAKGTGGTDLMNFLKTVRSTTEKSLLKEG

| IC50 [nM] | SMILES |
| --- | --- |
| 3 | Cc1c(C2CCN(C(=O)Cn3nc(C(=O)N4CCO[C@H](CO)C4)c4c3C[C@H]3C[C@@H]43)CC2)cccc1C(F)(F)F [Example 4, 2-((3bR,4aR)-3-((S)-2-(hydroxymethyl)morpholine-4-carbonyl)-3b,4,4a,5-tetrahydro-1H-cyclopropa[3,4]cyclopenta[1,2-c]pyrazol-1-yl)-1-(4-(2-methyl-3-(trifluoromethyl)phenyl)piperidin-1-yl)ethanone] |
| 54.2 | Cc1cccc(C2CCN(C(=O)Cn3nc(C(=O)N4CC[C@H](O)[C@H](F)C4)c4c3C[C@@H]3C[C@H]43)CC2)c1C [Example 29, 1-[4-(2,3-dimethylphenyl)piperidin-1-yl]-2-{(3bS,4aS)-3-[(3R,4S)-3-fluoro-4-hydroxypiperidine-1-carbonyl]-3b,4,4a,5-tetrahydro-1H-cyclopropa[3,4]cyclopenta[1,2-c]pyrazol-1-yl}ethan-1-one] |
| 162 | Cc1cc(F)ccc1C1CCN(C(=O)Cn2nc(C(=O)N3CC[C@@H](O)[C@H](F)C3)c3c2CCC3)CC1 [Example 54, 1-(4-(4-fluoro-2-methylphenyl)piperidin-1-yl)-2-(3-((3R,4R)-3-fluoro-4-hydroxypiperidine-1-carbonyl)-5,6-dihydrocyclopenta[c]pyrazol-1(4H)-yl)ethanone] |
| 107 | C[C@@H]1CN(C(=O)c2nn(CC(=O)N3CCC(c4ccccc4C(F)(F)F)CC3)c3c2CCC3)C[C@H](C)O1 [Example 71, 2-{3-[(2R,6S)-2,6-dimethylmorpholine-4-carbonyl]-5,6-dihydrocyclopenta[c]pyrazol-1(4H)-yl}-1-{4-[2-(trifluoromethyl)phenyl]piperidin-1-yl}ethan-1-one] |
| 41.2 | Cc1cccc(C2CCN(C(=O)Cn3nc(C(=O)N4CCN(C(=O)CO)CC4)c4c3C[C@@H]3C[C@H]43)CC2)c1C [Example 28, 1-[4-(2,3-dimethylphenyl)piperidin-1-yl]-2-{(3bS,4aS)-3-[4-(hydroxyacetyl)piperazine-1-carbonyl]-3b,4,4a,5-tetrahydro-1H-cyclopropa[3,4]cyclopenta[1,2-c]pyrazol-1-yl}ethan-1-one] |
| 2.8 | Cc1cccc(C2CCN(C(=O)Cn3nc(C(=O)N4CCC(C)(O)CC4)c4c3CCC4)CC2)c1C [Example 40, 1-(4-(2,3-dimethylphenyl)piperidin-1-yl)-2-(3-(4-hydroxy-4-methylpiperidine-1-carbonyl)-5,6-dihydrocyclopenta[c]pyrazol-1(4H)-yl)ethan-1-one] |
| 14.4 | Cc1cc(F)ccc1C1CCN(C(=O)Cn2nc(C(=O)N3C[C@@H](C)O[C@@H](C)C3)c3c2CCC3)CC1 [Example 92, 2-{3-[(2R,6S)-2,6-dimethylmorpholine-4-carbonyl]-5,6-dihydrocyclopenta[c]pyrazol-1(4H)-yl}-1-[4-(4-fluoro-2-methylphenyl)piperidin-1-yl]ethan-1-one] |
| 48.5 | COc1c(F)cccc1C1CCN(C(=O)Cn2nc(C(=O)N3C[C@@H](C)O[C@@H](C)C3)c3c2CCC3)CC1 [Example 115, 2-{3-[(2R,6S)-2,6-dimethylmorpholine-4-carbonyl]-5,6-dihydrocyclopenta[c]pyrazol-1(4H)-yl}-1-[4-(3-fluoro-2-methoxyphenyl)piperidin-1-yl]ethan-1-one] |
| 1.7 | Cc1c(C2CCN(C(=O)Cn3nc(C(=O)N4CCO[C@@H](CO)C4)c4c3C[C@H]3C[C@@H]43)CC2)cccc1C(F)(F)F [Example 5, 2-((3bR,4aR)-3-((R)-2-(hydroxymethyl)morpholine-4-carbonyl)-3b,4,4a,5-tetrahydro-1H-cyclopropa[3,4]cyclopenta[1,2-c]pyrazol-1-yl)-1-(4-(2-methyl-3-(trifluoromethyl)phenyl)piperidin-1-yl)ethanone] |
| 5.4 | Cc1cccc(C2(F)CCN(C(=O)Cn3nc(C(=O)N4CCN(C(=O)CO)CC4)c4c3C[C@H]3C[C@@H]43)CC2)c1C [Example 11, 1-(4-(2,3-dimethylphenyl)-4-fluoropiperidin-1-yl)-2-((3bR,4aR)-3-(4-(2-hydroxyacetyl)piperazine-1-carbonyl)-3b,4,4a,5-tetrahydro-1H-cyclopropa[3,4]cyclopenta[1,2-c]pyrazol-1-yl)ethanone] |
| 153 | Cc1cccc(F)c1C1CCN(C(=O)Cn2nc(C(=O)N3C[C@@H](C)O[C@@H](C)C3)c3c2CCC3)CC1 [Example 158, 2-{3-[(2R,6S)-2,6-dimethylmorpholine-4-carbonyl]-5,6-dihydrocyclopenta[c]pyrazol-1(4H)-yl}-1-[4-(2-fluoro-6-methylphenyl)piperidin-1-yl]ethan-1-one] |
| 166 | Cc1cc(F)ccc1C1CCN(C(=O)Cn2nc(C(=O)N3CC[C@@H](O)[C@@H](F)C3)c3c2CCC3)CC1 [Example 55, 1-(4-(4-fluoro-2-methylphenyl)piperidin-1-yl)-2-(3-((3S,4R)-3-fluoro-4-hydroxypiperidine-1-carbonyl)-5,6-dihydrocyclopenta[c]pyrazol-1(4H)-yl)ethanone] |

Further lines, the compound ahead of its results:

| SMILES | IC50 [nM] |
| --- | --- |
| Cc1cc(Cl)cc(C2CCN(C(=O)Cn3nc(C(=O)N4C[C@@H](C)O[C@@H](C)C4)c4c3CCC4)CC2)c1 [Example 148, 1-[4-(3-chloro-5-methylphenyl)piperidin-1-yl]-2-{3-[(2R,6S)-2,6-dimethylmorpholine-4-carbonyl]-5,6-dihydrocyclopenta[c]pyrazol-1(4H)-yl}ethan-1-one] | 117 |
| C[C@@H]1CN(C(=O)c2nn(CC(=O)N3CCC(c4cccc5cnccc45)CC3)c3c2CCC3)C[C@H](C)O1 [Example 171, 2-{3-[(2R,6S)-2,6-dimethylmorpholine-4-carbonyl]-5,6-dihydrocyclopenta[c]pyrazol-1(4H)-yl}-1-[4-(isoquinolin-5-yl)piperidin-1-yl]ethan-1-one] | 440 |
| COc1ccc(C2CCN(C(=O)Cn3nc(C(=O)N4C[C@@H](C)O[C@@H](C)C4)c4c3CCC4)CC2)c(F)c1 [Example 137, 2-{3-[(2R,6S)-2,6-dimethylmorpholine-4-carbonyl]-5,6-dihydrocyclopenta[c]pyrazol-1(4H)-yl}-1-[4-(2-fluoro-4-methoxyphenyl)piperidin-1-yl] ethan-1-one] | 85 |
| COc1cccc(C2CCN(C(=O)Cn3nc(C(=O)N4C[C@@H](C)O[C@@H](C)C4)c4c3CCC4)CC2)c1 [Example 108, 2-{3-[(2R,6S)-2,6-dimethylmorpholine-4-carbonyl]-5,6-dihydrocyclopenta[c]pyrazol-1(4H)-yl}-1-[4-(3-methoxyphenyl)piperidin-1-yl]ethan-1-one] | 37.9 |
| C[C@@H]1CN(C(=O)c2nn(CC(=O)N3CCC(c4cc(F)c(F)cc4F)CC3)c3c2CCC3)C[C@H](C)O1 [Example 149, 2-{3-[(2R,6S)-2,6-dimethylmorpholine-4-carbonyl]-5,6-dihydrocyclopenta[c]pyrazol-1(4H)-yl}-1-[4-(2,4,5-trifluorophenyl)piperidin-1-yl]ethan-1-one] | 120 |
| C[C@@H]1CN(C(=O)c2nn(CC(=O)N3CCC(c4cccc(F)c4)CC3)c3c2CCC3)C[C@H](C)O1 [Example 130, 2-{3-[(2R,6S)-2,6-dimethylmorpholine-4-carbonyl]-5,6-dihydrocyclopenta[c]pyrazol-1(4H)-yl}-1-[4-(3-fluorophenyl)piperidin-1-yl]ethan-1-one] | 66.1 |
| C[C@@H]1CN(C(=O)c2nn(CC(=O)N3CCC(c4ccccc4F)CC3)c3c2CCC3)C[C@H](C)O1 [Example 145, 2-{3-[(2R,6S)-2,6-dimethylmorpholine-4-carbonyl]-5,6-dihydrocyclopenta[c]pyrazol-1(4H)-yl}-1-[4-(2-fluorophenyl)piperidin-1-yl]ethan-1-one] | 106 |
| C[C@@H]1CN(C(=O)c2nn(CC(=O)N3CCC(C4CCCCC4)CC3)c3c2CCC3)C[C@H](C)O1 [Example 30, 1-(4-cyclohexylpiperidin-1-yl)-2-{3-[(2R,6S)-2,6-dimethylmorpholine-4-carbonyl]-5,6-dihydrocyclopenta[c]pyrazol-1(4H)-yl}ethan-1-one] | 299 |
| C[C@@H]1CN(C(=O)c2nn(CC(=O)N3CCC(c4ccccc4Cl)C3)c3c2CCC3)C[C@H](C)O1 (stereo partly drawn) [Example 78, 1-[3-(2-chlorophenyl)pyrrolidin-1-yl]-2-{3-[(2R,6S)-2,6-dimethylmorpholine-4-carbonyl]-5,6-dihydrocyclopenta[c]pyrazol-1(4H)-yl}ethan-1-one] | 346 |
| C[C@@H]1CN(C(=O)c2nn(CC(=O)N3CCC(c4ccc(Cl)cc4F)CC3)c3c2CCC3)C[C@H](C)O1 [Example 135, 1-[4-(4-chloro-2-fluorophenyl)piperidin-1-yl]-2-{3-[(2R,6S)-2,6-dimethylmorpholine-4-carbonyl]-5,6-dihydrocyclopenta[c]pyrazol-1(4H)-yl}ethan-1-one] | 83.4 |
| C[C@@H]1CN(C(=O)c2nn(CC(=O)N3CC[C@@H](c4ccccc4)[C@@H](C)C3)c3c2CCC3)C[C@H](C)O1 [Example 79, 2-{3-[(2R,6S)-2,6-dimethylmorpholine-4-carbonyl]-5,6-dihydrocyclopenta[c]pyrazol-1(4H)-yl}-1-[(3R,4R)-3-methyl-4-phenylpiperidin-1-yl]ethan-1-one] | 354 |
| C[C@@H]1CN(C(=O)c2nn(CC(=O)N3CCC(c4ccc(F)cc4)CC3)c3c2CCC3)C[C@H](C)O1 [Example 68, 2-{3-[(2R,6S)-2,6-dimethylmorpholine-4-carbonyl]-5,6-dihydrocyclopenta[c]pyrazol-1(4H)-yl}-1-[4-(4-fluorophenyl)piperidin-1-yl]ethan-1-one] | 71.2 |
| C[C@@H]1CN(C(=O)c2nn(CC(=O)N3CCC(c4cc(F)cc(F)c4)CC3)c3c2CCC3)C[C@H](C)O1 [Example 67, 1-[4-(3,5-difluorophenyl)piperidin-1-yl]-2-{3-[(2R,6S)-2,6-dimethylmorpholine-4-carbonyl]-5,6-dihydrocyclopenta[c]pyrazol-1(4H)-yl}ethan-1-one] | 52.4 |
| C[C@@H]1CN(C(=O)c2nn(CC(=O)N3CCC(c4ccc(F)c(F)c4)CC3)c3c2CCC3)C[C@H](C)O1 [Example 144, 1-[4-(3,4-difluorophenyl)piperidin-1-yl]-2-{3-[(2R,6S)-2,6-dimethylmorpholine-4-carbonyl]-5,6-dihydrocyclopenta[c]pyrazol-1(4H)-yl}ethan-1-one] | 104 |
